The values that follow come from patent publication US20210401809A1, “PHARMACEUTICAL COMPOUNDS” (Sareum Limited, priority 2016, published 2021).

For data set [1] the following is noted: 150 mg/kg Q5D IP.
Experimental: A total of 40 male SCID mice aged 5-7 weeks were used for the study. These were purchased from Charles River and allowed to acclimatize for 7 days prior to tumour implantation. Animals were housed in IVC cages (up to 5 per cage) with individual mice identified by tail mark. All animals were allowed free access to a standard certified commercial diet and sanitised water during the study. The holding room was maintained under standard conditions: 20-24° C., 40-70% humidity and a 12 h light/dark cycle.
CCRF-HSB-2 cells (5×10^6 in matrigel) were implanted onto the rear dorsum of male SCID mice using a 25-gauge needle. When tumours reached a size of approximately 100-150 mm^3 the mice were randomly assigned to the following treatment groups.
Dosing solutions were prepared on the day of study. Formulation was 0.5% methylcellulose/0.025% Tween-20 at dosing volume of 10 ml/kg based on animal weight on day of dosing. Animals were dosed orally twice daily (12 hours apart) for 18 consecutive days.
The subject of data set [2] is MOLT-4 tumours. Description: Efficacy study in mice bearing MOLT-4 tumours (Example 7). The settings on record: 21 days; for effect on MOLT-4 tumour growth: FIG. 7. The class given is in vivo, male SCID mice. An excerpt:
MOLT-4 cells (1×10^7 in matrigel) were implanted onto the rear dorsum of male SCID mice using a 25-gauge needle. When tumours reached approximately 100 mm^3 the mice were randomly assigned to the following treatment groups.

Data set [3] deals with MOLT-4 xenografts. The experiment in a line: Tumour growth delay study in mice bearing MOLT-4 xenografts (Example 9). It is filed as in vivo, male SCID mice. How it is done:
(§1) A total of 50 male SCID mice aged 5-7 weeks were used for the study. These were bred in-house at Axis Bioservices. Animals were housed in IVC cages (up to 5 per cage) with individual mice identified by tail mark. All animals were allowed free access to a standard certified commercial diet and sanitised water during the study. The holding room was maintained under standard conditions: 20-24° C., 40-70% humidity and a 12 h light/dark cycle.
(§2) MOLT-4 cells (1×10^7 in matrigel) were implanted onto the rear dorsum of male SCID mice using a 25-gauge needle. When tumours reached approximately 100-150 mm^3 the mice were randomly assigned to the following treatment groups.
(§3) Dosing solutions were prepared on the day of study.
(§4) The formulation for cyclophosphamide was PBS at a dosing volume of 10 ml/kg based on animal weight on day of dosing.
(§5) For combination dosing, both compounds were dosed at the same time.

Data set [4] has as its system CCRF-HSB-2 tumours. The experiment in a line: Tumour growth delay study in mice bearing CCRF-HSB-2 tumours (Example 8). The class given is in vivo, male SCID mice. To be noted: for T/C (test versus control) at the end of the study period: 18 days. How it is done: as §3
The subject of data set [5] is PARP cleavage in MOLT-4 cells. Description: Western blot assay, chronic compound treatment. The settings on record: 48 hrs, tested 0.03-3 μM, FIG. 2. The class given is cell-based. How it is done:
MOLT-4 cells were treated with Compounds 25 and 29 (of Example 1) and three benchmark inhibitors (GLPG0634 (Filgotinib, developed by Galapagos), TG101209 and GDC-046) as comparative examples at five concentrations (3, 1, 0.3, 0.1 and 0.03 μM), for 48 hrs.
Cell lysates were analysed by Western blot and probed with antibodies against PARP and Actin.
The details of the antibodies used are set out in the table below.
Protocol • Cell were plated in 6-well plates at 4e6 cells per well in 6 ml of media (RPMI+10% FBS) and incubated for at least 1 h at 37° C., 5% CO2. • Cells were treated with the indicated concentrations of compounds for 48 hrs. • Cells were harvested by centrifuging at 12,000 rpm for 1 min (4° C.), washed in ice cold PBS and centrifuged again at 12,000 rpm for 1 min (4° C.). • The supernatant was removed and the cell pellet snap frozen on dry ice. • Cells were lysed in RIPA buffer (with protease and phosphatase inhibitors) and incubated on ice for 30 min. • Cellular debris was pelleted at 13,000 rpm for 5 min at 4° C., supernatant was transferred to a fresh tube. • Protein concentration was estimated using a BCA assay. • 30 μg of protein was loaded onto 4-12% NuPAGE Novex Bis-Tris protein gels (MOPs buffer). • Protein was transferred to a PVDF membrane using dry transfer (iBlot) and western blotting performed against the antigens of interest.

The target in data set [6] is T1, TYK2 kinase (Homo sapiens, UniProt P29597).
T1 construct: 833-1187; GST (N); purchased Reaction Biology Corp. (contract assay); host or cells: Baculovirus in Sf21 insect cells
T1 sequence (P29597 833-1187): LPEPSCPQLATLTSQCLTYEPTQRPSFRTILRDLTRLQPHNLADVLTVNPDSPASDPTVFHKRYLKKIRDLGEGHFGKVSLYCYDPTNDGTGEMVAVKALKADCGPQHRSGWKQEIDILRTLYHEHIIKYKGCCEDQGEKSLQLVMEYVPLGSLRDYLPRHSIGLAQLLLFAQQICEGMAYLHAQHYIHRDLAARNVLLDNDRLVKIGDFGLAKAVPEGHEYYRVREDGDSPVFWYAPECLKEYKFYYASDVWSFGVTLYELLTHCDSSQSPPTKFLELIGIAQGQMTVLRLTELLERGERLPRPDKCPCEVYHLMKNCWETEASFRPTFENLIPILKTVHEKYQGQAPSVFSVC
The experiment in a line: In vitro enzyme inhibition, 33P-ATP filter kinase assay (Reaction Biology). The class given is biochemical. How it is done: (§6) Compounds of the invention were assayed for their ability to inhibit TYK2 kinase and other JAK kinases.
(§7) Substrates and kinases used in the assays are identified in Table 2 below.
(§8) JAK3tide=[Ac-[…]-NH2]

In data set [7] the target is T2, JAK3 (Homo sapiens, UniProt P52333).
T2 construct: 781-1124; GST (N); purchased Reaction Biology Corp. (contract assay); host or cells: Baculovirus in Sf21 insect cells
T2 sequence (P52333 781-1124): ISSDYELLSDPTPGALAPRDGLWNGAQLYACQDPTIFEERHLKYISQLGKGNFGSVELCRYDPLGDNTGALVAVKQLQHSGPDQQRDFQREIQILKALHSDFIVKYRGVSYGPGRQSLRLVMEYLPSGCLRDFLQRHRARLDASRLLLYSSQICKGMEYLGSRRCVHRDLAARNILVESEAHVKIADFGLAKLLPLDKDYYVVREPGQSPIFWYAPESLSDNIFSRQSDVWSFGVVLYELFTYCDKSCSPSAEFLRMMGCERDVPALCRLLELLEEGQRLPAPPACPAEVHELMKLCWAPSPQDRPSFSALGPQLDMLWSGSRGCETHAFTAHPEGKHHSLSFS
The description is as above. It is filed as biochemical. How it is done: as §6, §7, §8

The target of data set [8] is T3, JAK1 (Homo sapiens, UniProt P23458).
T3 construct: 866-1154; GST (N); purchased Reaction Biology Corp. (contract assay); host or cells: Baculovirus in Sf21 insect cells
T3 sequence (P23458 866-1154): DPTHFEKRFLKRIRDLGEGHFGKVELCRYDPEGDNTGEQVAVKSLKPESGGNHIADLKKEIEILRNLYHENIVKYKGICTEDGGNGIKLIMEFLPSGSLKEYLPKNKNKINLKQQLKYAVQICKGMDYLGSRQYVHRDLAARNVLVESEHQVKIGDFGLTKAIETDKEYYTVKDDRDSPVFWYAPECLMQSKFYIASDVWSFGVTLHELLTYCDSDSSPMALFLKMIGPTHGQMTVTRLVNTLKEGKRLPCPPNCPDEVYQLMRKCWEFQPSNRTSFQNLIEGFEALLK
Described as above. The class given is biochemical. How it is done: as §6, §7, §8

Data set [9] has as its system CCRF-CEM cells (TYK2-dependent T-ALL). The experiment in a line: Cell proliferation assay (ATPlite, 7 days). The class given is cell-based. The settings on record: Homo sapiens, 168 h. How it is done: (§9) Jurkat, MOLT-4, CCRF-CEM and CCRF-HSB-2 cells are all TYK2-dependent T-ALL cells. Loucy cells are TYK2-independent T-ALL cell lines. Dexamethasone, Etoposide and Paclitaxel were used as positive controls. Compound effects were studied 7 days after compound addition […] Luminescent product was detected using a BMG FLUOstar plate reader. • The data were analysed using a 4-parameter logistic equation in GraphPad Prism.
For orientation: In ATP-based viability assays light output follows the ATP content of the culture.

The subject of data set [10] is Loucy cells (TYK2-independent T-ALL). The experiment in a line: Cell proliferation assay (ATPlite, 7 days). The settings on record: 168 h. It is filed as cell-based. How it is done:
as §9

Data set [11] concerns MOLT-4 cells (TYK2-dependent T-ALL). The experiment in a line: Cell proliferation assay (ATPlite, 7 days). It is filed as cell-based. To be noted: Homo sapiens, MOLT-4, 168 h. How it is done: as §9
Data set [12] concerns Jurkat cells (TYK2-dependent T-ALL). Description: Cell proliferation assay (ATPlite, 7 days). It is filed as cell-based. The settings on record: Homo sapiens, 168 h. How it is done:
as §9

Data set [13] concerns CCRF-HSB-2 cells (TYK2-dependent T-ALL). The experiment in a line: Cell proliferation assay (ATPlite, 7 days). The settings on record: Homo sapiens, CCRF-HSB-2, 168 h. It is filed as cell-based. How it is done:
as §9

In data set [14] the test system is pSTAT1, pTYK2, cleaved PARP in MOLT-4 tumours. The experiment in a line: PKPD study: Western blot of tumour tissue. The class given is in vivo, male SCID mice. The settings on record: FIG. 6. How it is done:
(§10) Male SCID mice were implanted with MOLT-4 tumour cells (1×10^7 in 50% matrigel). When tumours reached approximately 150 mm^3 animals received a single dose of test compound. Animals to be sampled at 24 hrs also received a second dose at 12 hrs.
(§11) At 1, 6 and 24 h animals were sacrificed and plasma prepared. Tumour tissue was removed and divided into 2 sections—one for bioanalysis and the second for homogenisation for western blotting.
Tumour tissue was homogenised in lysis buffer supplemented with protease and phosphatase inhibitors. Protein in individual samples was quantified using a commercially available BCA kit.
50 μg total protein was run on a 4-20% pre-cast gel and transferred to PVDF membrane before being incubated with the following antibodies: • pSTAT1 • STAT1 • pTYK2 • TYK2 • Cleaved PARP • B-actin • Anti-rabbit IgG
In general terms: Immunoblotting shows a protein as a band on a membrane.

The nature of data set [15]: PKPD study: plasma and tumour concentrations. It is filed as in vivo, male SCID mice. To be noted: MOLT-4 tumour-bearing mice. How it is done: as §10, §11
The subject of data set [16] is TYK2-independent cell line (LOUCY). The settings on record: Sanda et al.; cited from earlier work.
Data set [17] has as its system TYK2 dependent cell lines (T-ALL cells). The settings on record: Sanda et al.; read-out: IC50 for inhibiting growth of TYK2 dependent cell lines; cited from earlier work.
Data set [18] in a line: Animal bodyweight in MOLT-4 xenograft study (Example 9). The class given is in vivo, male SCID mice. To be noted: 25 and 50 mg/kg BID PO, 21 days. Here is the method: as §1, §2, §3, §4, §5

As usually defined, the IC50 is the point on the concentration scale where inhibition reaches its midpoint.

Regarding `O=P1(N(CCCl)CCCl)NCCCO1` (stereo not drawn) [cyclophosphamide, reference compound], in data set [1], the animal bodyweight entry is recorded as “lost weight this was not significant”. Also, in [2] (150 mg/kg Q5D), the “T/C (test versus control), tumour volume, end of study” value was determined as 51.7% and the “T/C (test versus control), tumour weight, end of study” value is on record as 49.0%. For the same compound, the “T/C (test versus control) at the end of the study period” value (from here on “T/C (test versus control) at the end”) in data set [3] (150 mg/kg Q5D IP) was 26.2%. Moreover, the “T/C (test versus control) at the end” value in data set [4] (150 mg/kg Q5D IP) is on record as 5.9%.

For `NC(=O)c1nc(-c2c(F)cccc2Cl)oc1Nc1ccc(C(=O)N2CCOCC2)cc1` [Compound 25, 2-(2-chloro-6-fluoro-phenyl)-5-[4-(morpholine-4-carbonyl)-phenylamino]-oxazole-4-carboxylic acid amide], the “T/C (test versus control), tumour volume, end of study” value in data set [2] (25 mg/kg BID per os) amounted to 63.5%; in data set [2] (50 mg/kg BID per os), 27.0%. Besides, the “T/C (test versus control), tumour weight, end of study” value in [2] (25 mg/kg BID per os) is given as 60.7%; in [2] (50 mg/kg BID per os) it was 24.0%. Further, the “effect on MOLT-4 tumour growth” value in data set [2] (25 mg/kg BID per os) is “slowing growth but not resulting in tumour regression”; in [2] (50 mg/kg BID per os), “tumour regression”. In [5], the “concentrations at which cleaved PARP is present (apoptosis)” value is at least 1 µM. Also, the IC50 in [6] worked out at 0.564 nM; in data set [7] it was 43.2 nM; in data set [8], 28.9 nM; in [9], 0.38 µM; in [10], 0.35 µM; in data set [11] it was 0.27 µM. Moreover, the results for the IC50 in [12] and in data set [13] were 0.15 µM and 0.43 µM, respectively. Moreover, in data set [14] (MOLT-4 tumour tissue at 1, 6, 24 h vs vehicle), the “level of phosphorylated STAT1 in tumour” value was “reduction in level of phosphorylated STAT1 at t=1 h, returning to normal in comparison with vehicle treated controls between 6 and 24 h”. Further, the “cleaved Parp in tumour” value in data set [14] (MOLT-4 tumour tissue, relative to vehicle treated controls) was “An increase in cleaved Parp, relative to vehicle treated controls, was observed between 1 and 24 h”. The “Phosphorylated TYK2 levels in tumour” value in [14] (MOLT-4 tumour tissue, second dose at 12 hrs) is given as “increased at 24 h following the initial dose”. Besides, the “maximal concentration in plasma” value in data set [15] (plasma, single dose, FIG. 4) is reported as over 4000 ng/mL. In addition, in data set [15] (plasma, single dose, FIG. 4), the “time of maximal exposure in plasma after dosing” value is recorded as “one”. Also, the “maximal concentration in tumour tissue” value in [15] (tumour tissue, FIG. 5) was > 3000 ng per gram of tumour tissue. The “time of maximal exposure in tumour tissue after dosing” value in data set [15] (tumour tissue, FIG. 5) is reported as “six”.

On to JAK Inhibitor I, for which the “sensitivity of TYK2-independent cell line (LOUCY)” value in data set [16] is recorded as “insensitive”. For the same compound, the IC50 in data set [17] was 1000 to 3000 nM.

On to `NC(=O)c1nc(-c2c(Cl)cccc2Cl)oc1Nc1ccc(C(=O)N2CCOCC2)cc1` [Compound 29, 2-(2,6-dichloro-phenyl)-5-[4-(morpholine-4-carbonyl)-phenylamino]-oxazole-4-carboxylic acid amide], for which the “concentrations at which cleaved PARP is present (apoptosis)” value in data set [5] is at least 3 µM. For the same compound, the “T/C (test versus control) at the end” value turned out to be 26.8% in data set [3] (25 mg/kg BID PO, 21 days); 16.6% in data set [3] (50 mg/kg BID PO, 21 days); 18.1% in data set [4] (25 mg/kg BID PO); 10.8% in data set [4] (50 mg/kg BID PO). Further, the IC50 is 0.617 nM in [6]; 90.8 nM in [7]; 16.8 nM in data set [8]; 1.8 µM in data set [9]; 1.7 µM in [10]; 1.2 µM in data set [11]. The IC50 in data set [12] was 0.6 µM; in [13], 1.4 µM. The “control of CCRF-HSB-2 tumour growth” value in [4] (25 and 50 mg/kg BID PO, similar inhibition at both doses (p=0.6397), FIG. 8) is “good efficacy in controlling CCRF-HSB-2 tumour growth”. The “tumour weight at Day 18 versus vehicle only” value in data set [4] (25 and 50 mg/kg BID, p<0.0001, FIG. 9) is given as “significantly smaller”. In addition, in data set [18], the “bodyweight during the study” value is listed as “maintained at pre-treatment levels”.
